According to US20230041563A1, “N-(1,3,4-OXADIAZOL-2-YL)ARYLCARBOXAMIDES OR SALTS THEREOF, PREPARATION METHODS, HERBICIDAL COMPOSITIONS AND USES THEREOF” (priority 2018, published 2023):

Legend:
Experiment in all cases: Weeding effect in post-emergence stage (greenhouse pot spray)
Assay type in all cases: in vivo
[1] = test system: Abutilon theophrasti
Summary of the method: (§1)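 Pot-grown greenhouse plants, 2-3 leaf stage; spray-tower application; formulation acetone/Tween 80 plus methyl oleate EC 1.5 liter/ha as synergist; rates 500, 250, 125, 60, 15 g a.i./ha; assessed 3 wk post-treatment as fresh weight control, n=3.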

[2] = test system: Digitaria sanguinalis
Summary of the method: as §1

[3] = test system: Echinochloa crusgalli
Summary of the method: as §1

[4] = test system: Amaranthus retroflexus
Source text: (§2) The activity level criteria for plant damage (i.e., growth control rate) are as follows:
(§3) The above growth control rates are fresh weight control rates.
(§4) Experiment on weeding effect in post-emergence stage: monocotyledonous and dicotyledonous weed seeds (Descurainia sophia, Capsella bursa-pastoris, Abutilon theophrasti, Galium aparine, Stellaria media, Lithospermum arvense, rorippa indica, Alopecurus aequalis, Beckmannia syzigachne, Sclerochloa dura, Phleum paniculatum, Bromus japonicus, Aegilops tauschii, Phalaris arundinacea, Amaranthus retroflexus, Chenopodiaceae, Commelina communis, Sonchus arvensis, convolvulus arvensis, Cirsium setosum, Solanum nigrum, Acalypha australis, Digitaria sanguinalis, Echinochloa crusgalli, Setaria viridis, Setaria glauca, Leptochloa chinensis, Monochoria vaginalis, Sagittaria trifolia, Scirpus juncoides, Cyperus rotundus, Cyperus iria, Cyperus difformis, Fimbristylis, Portulaca oleracea, Xanthium sibiricum, Pharbitis nil) and major crop seeds (wheat, corn, rice, soybean, cotton, oilseed rape, millet, sorghum, potato, sesame, ricinus) were placed in plastic pots filled with soil, then covered with 0.5-2 cm of soil, allowed to grow in a good greenhouse environment. After 2 weeks of sowing, the test plants were treated in the 2 to 3 leaf stage. The tested compounds of the present invention were respectively dissolved in acetone, then added with Tween 80 and 1.5 liter/ha of emulsifiable concentrate of methyl oleate as synergist, diluted with a certain amount of water to obtain a solution with a certain concentration, and sprayed with a spray tower onto the plants. After the application, the plants were cultured for 3 weeks in the greenhouse, and then the experimental results of the weeding were counted. The doses of the used compounds were 500, 250, 125, 60, 15 g a.i./ha, and the averages were obtained by repeating for three times.

[5] = test system: Stellaria media
Source text: as §2, §3, §4

| Structure (SMILES) | Abutilion theophrasti (activity level) ([1]; Table 2, dose 250 g a.i./ha) | Digitaria sanguinalis (activity level) ([2]; Table 2, dose 250 g a.i./ha) | Echinochloa crusgah (activity level) ([3]; Table 2, dose 250 g a.i./ha) | Amaranthus retroflexus (activity level) ([4]; Table 2, dose 250 g a.i./ha) | Stellaria media (activity level) ([5]; Table 2, dose 250 g a.i./ha) | Abutilion theophrasti (activity level) ([1]; Table 2, dose 500 g a.i./ha) | Digitaria sanguinalis (activity level) ([2]; Table 2, dose 500 g a.i./ha) | Echinochloa crusgah (activity level) ([3]; Table 2, dose 500 g a.i./ha) | Amaranthus retroflexus (activity level) ([4]; Table 2, dose 500 g a.i./ha) | Stellaria media (activity level) ([5]; Table 2, dose 500 g a.i./ha) |
| --- | --- | --- | --- | --- | --- | --- | --- | --- | --- | --- |
| Cc1nnc(NC(=O)c2ccc(C(F)(F)F)c(S(=O)(=O)C(C)C)c2F)o1 [Compound 1-12] | 5 (Level 5: growth control rate is above 85%) | 5 (Level 5: growth control rate is above 85%) | 5 (Level 5: growth control rate is above 85%) | 5 (Level 5: growth control rate is above 85%) | 5 (Level 5: growth control rate is above 85%) |  |  |  |  |  |
| Cc1nnc(NC(=O)c2ccc(C(F)(F)F)c(SCC(F)F)c2F)o1 [Compound 1-49] |  |  |  |  |  | 5 (Level 5: growth control rate is above 85%) | 5 (Level 5: growth control rate is above 85%) | 5 (Level 5: growth control rate is above 85%) | 5 (Level 5: growth control rate is above 85%) | 5 (Level 5: growth control rate is above 85%) |
| Cc1nnc(NC(=O)c2ccc(C(F)(F)F)c(SCC(F)(F)F)c2F)o1 [Compound 1-50] |  |  |  |  |  | 5 (Level 5: growth control rate is above 85%) | 5 (Level 5: growth control rate is above 85%) | 5 (Level 5: growth control rate is above 85%) | 5 (Level 5: growth control rate is above 85%) | 5 (Level 5: growth control rate is above 85%) |
| Cc1nnc(NC(=O)c2ccc(C(F)(F)F)c(SCCC(F)(F)F)c2F)o1 [Compound 1-51] |  |  |  |  |  | 5 (Level 5: growth control rate is above 85%) | 5 (Level 5: growth control rate is above 85%) | 5 (Level 5: growth control rate is above 85%) | 5 (Level 5: growth control rate is above 85%) | 5 (Level 5: growth control rate is above 85%) |
| Cc1nnc(NC(=O)c2ccc(C(F)(F)F)c(S(=O)(=O)CCC(F)(F)F)c2F)o1 [Compound 1-53] |  |  |  |  |  | 5 (Level 5: growth control rate is above 85%) | 5 (Level 5: growth control rate is above 85%) | 5 (Level 5: growth control rate is above 85%) | 5 (Level 5: growth control rate is above 85%) | 5 (Level 5: growth control rate is above 85%) |
| Cc1nnc(NC(=O)c2ccc(C(F)(F)F)c(SCCO)c2F)o1 [Compound 1-59] |  |  |  |  |  | 5 (Level 5: growth control rate is above 85%) | 5 (Level 5: growth control rate is above 85%) | 5 (Level 5: growth control rate is above 85%) | 5 (Level 5: growth control rate is above 85%) | 5 (Level 5: growth control rate is above 85%) |
| Cc1nnc(NC(=O)c2ccc(C(F)(F)F)c([S+]([O-])C(C)(C)C)c2F)o1 (stereo not drawn) [Compound 1-137] |  |  |  |  |  | 5 (Level 5: growth control rate is above 85%) | 5 (Level 5: growth control rate is above 85%) | 5 (Level 5: growth control rate is above 85%) | 5 (Level 5: growth control rate is above 85%) | 5 (Level 5: growth control rate is above 85%) |
| Cc1nnc(NC(=O)c2ccc(C(F)(F)F)c([S+]([O-])CC(C)(C)C)c2F)o1 (stereo not drawn) [Compound 1-392] |  |  |  |  |  | 5 (Level 5: growth control rate is above 85%) | 5 (Level 5: growth control rate is above 85%) | 5 (Level 5: growth control rate is above 85%) | 5 (Level 5: growth control rate is above 85%) | 5 (Level 5: growth control rate is above 85%) |
| C=CCC[S+]([O-])c1c(C(F)(F)F)ccc(C(=O)Nc2nnc(C)o2)c1F (stereo not drawn) [Compound 1-397] |  |  |  |  |  | 5 (Level 5: growth control rate is above 85%) | 5 (Level 5: growth control rate is above 85%) | 5 (Level 5: growth control rate is above 85%) | 5 (Level 5: growth control rate is above 85%) | 5 (Level 5: growth control rate is above 85%) |
| CC=CC[S+]([O-])c1c(C(F)(F)F)ccc(C(=O)Nc2nnc(C)o2)c1F (stereo not drawn) [Compound 1-398] |  |  |  |  |  | 5 (Level 5: growth control rate is above 85%) | 5 (Level 5: growth control rate is above 85%) | 5 (Level 5: growth control rate is above 85%) | 5 (Level 5: growth control rate is above 85%) | 5 (Level 5: growth control rate is above 85%) |
| CNCC[S+]([O-])c1c(C(F)(F)F)ccc(C(=O)Nc2nnc(C)o2)c1F (stereo not drawn) [Compound 1-441] |  |  |  |  |  | 5 (Level 5: growth control rate is above 85%) | 5 (Level 5: growth control rate is above 85%) | 5 (Level 5: growth control rate is above 85%) | 5 (Level 5: growth control rate is above 85%) | 5 (Level 5: growth control rate is above 85%) |
| COC[S+]([O-])c1c(C(F)(F)F)ccc(C(=O)Nc2nnc(C)o2)c1F (stereo not drawn) [Compound 1-443] |  |  |  |  |  | 5 (Level 5: growth control rate is above 85%) | 5 (Level 5: growth control rate is above 85%) | 5 (Level 5: growth control rate is above 85%) | 5 (Level 5: growth control rate is above 85%) | 5 (Level 5: growth control rate is above 85%) |
| CCOCC[S+]([O-])c1c(C(F)(F)F)ccc(C(=O)Nc2nnc(C)o2)c1F (stereo not drawn) [Compound 1-446] | 5 (Level 5: growth control rate is above 85%) | 5 (Level 5: growth control rate is above 85%) | 5 (Level 5: growth control rate is above 85%) | 5 (Level 5: growth control rate is above 85%) | 5 (Level 5: growth control rate is above 85%) |  |  |  |  |  |
| COC(C)C[S+]([O-])c1c(C(F)(F)F)ccc(C(=O)Nc2nnc(C)o2)c1F (stereo not drawn) [Compound 1-447] |  |  |  |  |  | 5 (Level 5: growth control rate is above 85%) | 5 (Level 5: growth control rate is above 85%) | 5 (Level 5: growth control rate is above 85%) | 5 (Level 5: growth control rate is above 85%) | 5 (Level 5: growth control rate is above 85%) |
| COCCC[S+]([O-])c1c(C(F)(F)F)ccc(C(=O)Nc2nnc(C)o2)c1F (stereo not drawn) [Compound 1-448] |  |  |  |  |  | 5 (Level 5: growth control rate is above 85%) | 5 (Level 5: growth control rate is above 85%) | 5 (Level 5: growth control rate is above 85%) | 5 (Level 5: growth control rate is above 85%) | 5 (Level 5: growth control rate is above 85%) |
